Measurements: US11426397B2, “Piperidinyl- and piperazinyl-substituted heteroaromatic carboxamides as modulators of GPR6” (TAKEDA PHARMACEUTICAL COMPANY LIMITED, priority 2017, dated 2022)

Molecular target: T1, GPR6 receptor expressed in CHO-K1 cells (Homo sapiens, UniProt P46095)
T1 construct: expressed in transfected cells
Experiment: In vitro inhibition of cAMP (EC50), cell-based HTRF cAMP assay
Conditions: inhibition of constitutive cAMP activity of GPR6 in CHO-K1 cells
In short: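 Cellular cAMP measured by Lance Ultra HTRF (Eu-cAMP tracer, ULight anti-cAMP), with EC50 fitted by four-parameter logistic. Test compounds sat on cells 45 min, 37 °C, in pH 7.4 Ringer's with 300 μM IBMX and 0.5% BSA; GPR6 in CHO-K1 induced beforehand by doxycycline, 2 μg/mL, 20 h.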

T1 sequence (P46095 whole entry): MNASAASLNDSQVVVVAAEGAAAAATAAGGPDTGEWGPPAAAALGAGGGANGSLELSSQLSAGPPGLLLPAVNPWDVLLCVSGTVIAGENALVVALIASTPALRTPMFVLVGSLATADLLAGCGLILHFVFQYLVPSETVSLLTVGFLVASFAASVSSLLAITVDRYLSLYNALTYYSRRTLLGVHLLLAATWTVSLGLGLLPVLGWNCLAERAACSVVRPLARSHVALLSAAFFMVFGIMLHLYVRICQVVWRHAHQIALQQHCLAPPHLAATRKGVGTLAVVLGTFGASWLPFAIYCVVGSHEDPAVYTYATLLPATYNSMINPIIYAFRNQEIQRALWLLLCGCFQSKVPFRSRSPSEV

| pEC50, in vitro inhibition of cAMP | SMILES |
| --- | --- |
| 6.1 | Cn1cccc(C(=O)Nc2cc(C#N)ccc2N2CCC(Oc3cccc(F)c3F)CC2)c1=O [Example 9, N-(5-cyano-2-(4-(2,3-difluorophenoxy)piperidin-1-yl)phenyl)-1-methyl-2-oxo-1,2-dihydropyridine-3-carboxamide] |
| 7.3 | N#Cc1cnc(N2CCC(Oc3ccc(F)cc3F)CC2)c(NC(=O)c2ccccn2)c1 [Example 66, N-(5-cyano-2-(4-(2,4-difluorophenoxy)piperidin-1-yl)pyridin-3-yl)picolinamide] |
| 7.3 | COc1ncc(F)cc1C(=O)Nc1cc(C#N)ccc1N1CCC(Oc2ccc(F)cc2F)CC1 [Example 224, N-(5-cyano-2-(4-(2,4-difluorophenoxy)piperidin-1-yl)phenyl)-5-fluoro-2-methoxynicotinamide] |
| 6.6 | Cn1cccc(C(=O)Nc2cc(C#N)ccc2N2CCC(Oc3ccc(F)c(F)c3)CC2)c1=O [Example 16] |
| 7.2 | COc1ccc(OC2CCN(c3ccc(S(C)(=O)=O)cc3NC(=O)c3cn(CCF)nc3OC)CC2)c(F)c1 [Example 1, V-(2-(4-(2-fluoro-4-methoxyphenoxy)piperidin-1-yl)-5-(methylsulfonyl)phenyl)-1-(2-fluoroethyl)-3-methoxy-1H-pyrazole-4-carboxamide] |
| 6.4 | Cc1cc(C(=O)Nc2cc(C#N)ccc2N2CCC(Oc3ccc(F)cc3F)CC2)no1 [Example 41, N-(5-cyano-2-(4-(2,4-difluorophenoxy)piperidin-1-yl)phenyl)-5-methylisoxazole-3-carboxamide] |
| 7.3 | COc1ccncc1C(=O)Nc1cc(C(=O)N(C)C)ncc1N1CCC(Oc2ccc(F)cc2F)CC1 [Example 262, 5-(4-(2,4-difluorophenoxy)piperidin-1-yl)-4-(4-methoxynicotinamido)-N,N-dimethylpicolinamide] |
| 6.1 | COc1nn(C)cc1C(=O)Nc1cnc(C)cc1N1CCC(S(=O)(=O)c2ccc(F)cc2F)CC1 [Example 99, N-(4-(4-((2,4-difluorophenyl)sulfonyl)piperidin-1-yl)-6-methylpyridin-3-yl)-3-methoxy-1-methyl-1H-pyrazole-4-carboxamide] |
| 6.4 | COc1nn(C)cc1C(=O)Nc1cc(C#N)cnc1N1CCN(Cc2cc(F)cc(F)c2)CC1 [Example 169, N-(5-cyano-2-(4-(3,5-difluorobenzyl)piperazin-1-yl)pyridin-3-yl)-3-methoxy-1-methyl-1H-pyrazole-4-carboxamide] |
| 6.5 | COc1ncccc1C(=O)Nc1cc(C#N)ccc1N1CCC(C(OC)c2ccc(F)cc2)CC1 (stereo not shown) [Example 96, N-(5-cyano-2-(4-((4-fluorophenyl)(methoxy)methyl)piperidin-1-yl)phenyl)-2-methoxynicotinamide] |
| 5.5 | COc1c(C)ccc(C)c1C(=O)Nc1cc(C#N)ccc1N1CCC(Oc2ccc(F)cc2F)CC1 [Example 214, N-(5-cyano-2-(4-(2,4-difluorophenoxy)piperidin-1-yl)phenyl)-2-methoxy-3,6-dimethylbenzamide] |
| 6.2 | COc1ncccc1C(=O)Nc1cnc(C)cc1N1CCC(Oc2ccc(C#N)cc2F)CC1 [Example 40, N-(4-(4-(4-cyano-2-fluorophenoxy)piperidin-1-yl)-6-methylpyridin-3-yl)-2-methoxynicotinamide] |
| 6.0 | COc1ccc(CN2CCN(c3ccc(C#N)cc3NC(=O)c3cccnc3OC)CC2)nc1 [Example 250, N-(5-cyano-2-(4-((5-methoxypyridin-2-yl)methyl)piperazin-1-yl)phenyl)-2-methoxynicotinamide] |
| 6.3 | Cn1cccc(C(=O)Nc2cc(C#N)ccc2N2CCC(Oc3c(F)cccc3F)CC2)c1=O [Example 13, N-(5-cyano-2-(4-(2,6-difluorophenoxy)piperidin-1-yl)phenyl)-1-methyl-2-oxo-1,2-dihydropyridine-3-carboxamide] |
| 6.3 | COc1nc(C)cc(C)c1C(=O)Nc1cc(C#N)ccc1N1CCC(Oc2ccc(F)cc2F)CC1 [Example 80, N-(5-cyano-2-(4-(2,4-difluorophenoxy)piperidin-1-yl)phenyl)-2-methoxy-4,6-dimethylnicotinamide] |
| 5.0 | COc1cccc(OC)c1C(=O)Nc1cc(C#N)ccc1N1CCC(Oc2ccc(F)cc2F)CC1 [Example 238, N-(5-cyano-2-(4-(2,4-difluorophenoxy)piperidin-1-yl)phenyl)-2,6-dimethoxybenzamide] |
| 6.1 | COc1nn(C)cc1C(=O)Nc1cc(C)cnc1N1CCN(Cc2ccc(C#N)c(F)c2)CC1 [Example 102, N-(2-(4-(4-cyano-3-fluorobenzyl)piperazin-1-yl)-5-methylpyridin-3-yl)-3-methoxy-1-methyl-1H-pyrazole-4-carboxamide] |

| pEC50, in vitro inhibition of cAMP | SMILES |
| --- | --- |
| 6.5 | COc1nn(C)cc1C(=O)Nc1cc(C#N)cnc1N1CCN(Cc2cccc(F)c2OC)CC1 [Example 160, N-(5-cyano-2-(4-(3-fluoro-2-methoxybenzyl)piperazin-1-yl)pyridin-3-yl)-3-methoxy-1-methyl-1H-pyrazole-4-carboxamide] |
| 6.7 | COc1ncccc1C(=O)Nc1cc(C#N)ccc1N1CCN(C(=O)c2ccc(F)cc2)CC1 [Example 286, N-(5-cyano-2-(4-(4-fluorobenzoyl)piperazin-1-yl)phenyl)-2-methoxynicotinamide] |
| 5.8 | N#Cc1ccc(N2CCC(Oc3ccc(F)cc3F)CC2)c(NC(=O)c2cccn(C3CCCCC3)c2=O)c1 [Example 180, N-(5-cyano-2-(4-(2,4-difluorophenoxy)piperidin-1-yl)phenyl)-1-cyclohexyl-2-oxo-1,2-dihydropyridine-3-carboxamide] |
| 7.0 | COc1nn(C)cc1C(=O)Nc1cc(C)cnc1N1CCC(Oc2ccc(F)cc2F)CC1 [Example 36, N-(2-(4-(2,4-difluorophenoxy)piperidin-1-yl)-5-methylpyridin-3-yl)-3-methoxy-1-methyl-1H-pyrazole-4-carboxamide] |
| 7.0 | Cn1cccc(C(=O)Nc2cc(S(=O)(=O)N3CCOCC3)cnc2N2CCC(Oc3ccc(F)cc3F)CC2)c1=O [Example 279, N-(2-(4-(2,4-difluorophenoxy)piperidin-1-yl)-5-(morpholinosulfonyl)pyridin-3-yl)-1-methyl-2-oxo-1,2-dihydropyridine-3-carboxamide] |
| 6.4 | COc1c(C)cccc1C(=O)Nc1cc(C#N)ccc1N1CCC(Oc2ccc(F)cc2F)CC1 [Example 232, N-(5-cyano-2-(4-(2,4-difluorophenoxy)piperidin-1-yl)phenyl)-2-methoxy-3-methylbenzamide] |
| 7.1 | COc1nn(C)cc1C(=O)Nc1cc(C#N)cnc1N1CCN(Cc2ccc(Cl)cc2F)CC1 [Example 172, N-(2-(4-(4-chloro-2-fluorobenzyl)piperazin-1-yl)-5-cyanopyridin-3-yl)-3-methoxy-1-methyl-1H-pyrazole-4-carboxamide] |
| 7.0 | Cn1cccc(C(=O)Nc2cc(C#N)ccc2N2CCC(C(=O)c3cc(F)ccc3F)CC2)c1=O [Example 82, N-(5-cyano-2-(4-(2,5-difluorobenzoyl)piperidin-1-yl)phenyl)-1-methyl-2-oxo-1,2-dihydropyridine-3-carboxamide] |
| 6.3 | COc1ncc(NC(=O)c2ccc(C)nc2OC)c(N2CCC(Oc3ccc(F)cc3F)CC2)n1 [Example 23, N-(4-(4-(2,4-difluorophenoxy)piperidin-1-yl)-2-methoxypyrimidin-5-yl)-2-methoxy-6-methylnicotinamide] |
| 7.1 | COc1cccc(C(=O)Nc2cc(C#N)ccc2N2CCC(Oc3ccc(F)cc3F)CC2)c1OC [Example 230] |
| 4.9 | CN(C)C(=O)Cn1cccc(C(=O)Nc2cc(C#N)ccc2N2CCC(Oc3ccc(F)cc3F)CC2)c1=O [Example 204, N-(5-cyano-2-(4-(2,4-difluorophenoxy)piperidin-1-yl)phenyl)-1-(2-(dimethylamino)-2-oxoethyl)-2-oxo-1,2-dihydropyridine-3-carboxamide] |
| 7.2 | CCCNC(=O)c1cc(N2CCC(Oc3ccc(F)cc3F)CC2)c(NC(=O)c2cccnc2OC)cn1 [Example 254, 4-(4-(2,4-difluorophenoxy)piperidin-1-yl)-5-(2-methoxynicotinamido)-N-propylpicolinamide] |
| 7.3 | COc1ncccc1C(=O)Nc1cc(C#N)c(C(=O)N(C)C)cc1N1CCC(Oc2ccc(F)cc2F)CC1 [Example 273] |
| 6.4 | CCc1cc(C(=O)Nc2cc(C#N)ccc2N2CCC(Oc3ccc(F)cc3F)CC2)no1 [Example 118, N-(5-cyano-2-(4-(2,4-difluorophenoxy)piperidin-1-yl)phenyl)-5-ethylisoxazole-3-carboxamide] |
| 7.4 | COc1cc(N2CCC(Oc3ccc(F)cc3F)CC2)c(NC(=O)c2cnccc2OC)cn1 [Example 21, N-(4-(4-(2,4-difluorophenoxy)piperidin-1-yl)-6-methoxypyridin-3-yl)-4-methoxynicotinamide] |
| 7.0 | Cn1cccc(C(=O)Nc2ccccc2N2CCC(Oc3ccc(F)cc3F)CC2)c1=O [Example 257, N-(2-(4-(2,4-difluorophenoxy)piperidin-1-yl)phenyl)-1-methyl-2-oxo-1,2-dihydropyridine-3-carboxamide] |
| 7.3 | Cc1ccc(F)c(C(=O)Nc2cc(C#N)cnc2N2CCC(Oc3ccc(F)cc3F)CC2)n1 [Example 57, N-(5-cyano-2-(4-(2,4-difluorophenoxy)piperidin-1-yl)pyridin-3-yl)-3-fluoro-6-methylpicolinamide] |
